{"source": "patent US7989587B2", "about": "“SSX-2 peptides presented by HLA class II molecules” (Ludwig Institute for Cancer Research Ltd., priority 1999, dated 2011)", "test_system": "SSX-2 specific CD4^+ T cells", "assay": "Intracellular IFN-γ staining of CD4+ T cells from patient LAU672 after stimulation with SSX-2 peptide submixtures or single peptides", "format": "cell-based, human", "conditions": "representative CD4+ T cell clone, FIG. 2A", "procedure": "Generation of SSX-2 specific CD4^+ T cells. In vitro sensitization of CD4^+ T cells was carried out as described previously for CD8^+ T cells. Briefly, 1 to 2×10^6 CD4^+ T cells highly enriched from peripheral blood mononuclear cells (PBMC) by magnetic cell sorting using a miniMACS device (Miltenyi Biotec, Sunnyvale, Calif., USA) were stimulated with a mixture containing peptides spanning the entire SSX-2 protein sequence (Ayyoub et al, J Immunol 2002. 32:2292-2299) (2 μM each) in the presence of irradiated autologous cells from the CD4^− fraction in CTL medium containing rhIL-2 (10 U/ml) and IL-7 ([…]). The enriched CD4^+ T cells were cultured 2-3 weeks prior to being tested. CD4^+ T cells secreting cytokines in response to peptide stimulation were isolated by cytokine guided flow cytometry cell sorting using the cytokine secretion detection kit (Miltenyi Biotec) and cloned by limiting dilution culture in the presence of PHA (Sigma), allogenic irradiated PBMC and rhIL-2 as described (Valmori et al., 2001, Cancer Res. 61:501-512). Clones were subsequently expanded by periodic (3-4 weeks) stimulation under the same conditions.\nAs recombinant SSX-2 protein became available, we initiated a study to identify CD4^+ T cell epitopes. To that purpose, we prepared monocyte-derived dendritic cells (DC) from patient LAU672 by isolating CD 14+ monocytes from PBMC by magnetic cell sorting. The obtained population (containing >95% CD14^+ cells) was cultured in CTL medium containing 1,000 U/ml of rhGM-CSF and 1,000 U/ml of rhIL-4 during 6 days. At the end of the culture period, DC were incubated with recombinant SSX-2 protein for 12 hours and used to stimulate autologous CD4^+ T cells isolated from PBMC by magnetic cell sorting.\nTwo weeks after stimulation, culture aliquots were tested using either a pool containing all SSX-2 overlapping peptides or submixtures, each composed of 3 peptides (P1-3, P4-6 etc., FIG. 1). […]\nThe presence of specific CD4^+ T cells was monitored by intracellular staining with INF-γ specific antibodies (FIG. 1A). […]", "data": [{"sequence": "WEKMKASEKIFYVYMKRKYEAM (SSX-2 peptide) [SSX-2 37-58]", "values": [{"measurement": "reactivity to single peptides in the submixture P4-6", "result": "active peptide"}]}]}
